This passage reports IC50 results from patent US10059689B2, “Substituted heteroaryl compounds and methods of use” (Sunshine Lake Pharma Co., Ltd., priority 2014, dated 2018).

For the experiment, the target named is T1, JAK3 (h) (Homo sapiens, UniProt P52333).
T1 construct: purchased Millipore UK Ltd (contract assay service)
T1 sequence (P52333 1-1124): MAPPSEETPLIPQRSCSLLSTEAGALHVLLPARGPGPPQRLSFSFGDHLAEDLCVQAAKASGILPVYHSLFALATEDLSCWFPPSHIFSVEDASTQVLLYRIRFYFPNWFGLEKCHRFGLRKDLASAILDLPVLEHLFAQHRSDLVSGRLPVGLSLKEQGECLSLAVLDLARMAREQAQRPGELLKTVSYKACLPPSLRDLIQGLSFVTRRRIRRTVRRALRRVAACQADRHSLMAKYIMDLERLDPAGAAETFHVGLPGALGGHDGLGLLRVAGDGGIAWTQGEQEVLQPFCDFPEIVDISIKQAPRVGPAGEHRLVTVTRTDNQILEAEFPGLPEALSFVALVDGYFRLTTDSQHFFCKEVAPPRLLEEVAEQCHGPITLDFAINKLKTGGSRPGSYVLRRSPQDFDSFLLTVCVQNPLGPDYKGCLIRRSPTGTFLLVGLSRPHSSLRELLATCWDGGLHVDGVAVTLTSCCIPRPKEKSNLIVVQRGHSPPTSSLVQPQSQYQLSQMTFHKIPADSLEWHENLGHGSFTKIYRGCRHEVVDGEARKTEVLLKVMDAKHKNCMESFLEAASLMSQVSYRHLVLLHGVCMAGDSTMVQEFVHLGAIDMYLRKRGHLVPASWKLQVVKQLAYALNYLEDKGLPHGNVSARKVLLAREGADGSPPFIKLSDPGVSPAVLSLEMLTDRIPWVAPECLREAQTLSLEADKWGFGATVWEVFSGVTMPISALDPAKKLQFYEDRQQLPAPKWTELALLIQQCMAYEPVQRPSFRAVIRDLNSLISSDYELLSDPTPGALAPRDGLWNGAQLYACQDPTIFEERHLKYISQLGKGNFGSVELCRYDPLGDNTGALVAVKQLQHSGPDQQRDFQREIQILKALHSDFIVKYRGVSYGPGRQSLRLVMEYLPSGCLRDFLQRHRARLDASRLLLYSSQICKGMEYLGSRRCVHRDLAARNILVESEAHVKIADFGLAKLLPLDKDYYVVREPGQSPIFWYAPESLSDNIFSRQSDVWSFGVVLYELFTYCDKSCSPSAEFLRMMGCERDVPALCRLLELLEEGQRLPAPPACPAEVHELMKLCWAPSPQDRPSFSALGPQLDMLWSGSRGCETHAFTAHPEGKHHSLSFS
Description: JAK3 (h) kinase assay. Type of experiment: biochemical. As to the method: Kinase assays can be performed by measurement of incorporation of γ-33P ATP into immobilized myelin basic protein (MBP). High binding white 384 well plates (Greiner) are coated with MBP (Sigma #M-1891) by incubation of 60 μL/well of 20 μg/mL MBP in Tris-buffered saline (TBS; 50 mM Tris pH 8.0, 138 mM NaCl, 2.7 mM KCl) for 24 h at 4° C. Plates are washed 3× with 100 μL TBS. Kinase reactions are carried out in a total volume of 34 μL in kinase buffer (according to the need to make, for example, 5 mM Hepes pH 7.6, 15 mM NaCl, 0.01% bovine gamma globulin (Sigma #I-5506), 10 mM MgCl2, 1 mM DTT, 0.02% TritonX-100). Compound dilutions are performed in DMSO and added to assay wells to a final DMSO concentration of 1%. Each data point is measured in duplicate, and at least two duplicate assays are performed for each individual compound determination. Enzyme is added to final concentrations of 10 nM or 20 nM, for example. A mixture of unlabeled ATP and γ-33P ATP is added to start the reaction (2×10^6 cpm of γ-33P ATP per well (3000 Ci/mmole) and 10 μM unlabeled ATP, typically. The reactions are carried out for 1 h at room temperature with shaking Plates are washed 7× with TBS, followed by the addition of 50 μL/well scintillation fluid (Wallac). Plates are read using a Wallac Trilux counter. This is only one format of such assays; various other formats are possible, as known to one skilled in the art.
The above assay procedure can be used to determine the IC50 for inhibition and/or the inhibition constant, Ki. The IC50 is defined as the concentration of compound required to reduce the enzyme activity by 50% under the condition of the assay. The IC50 value is estimated by preparing a 10 point curve using a ½ log dilution series (for example, a typical curve may be prepared using the following compound concentrations: 3 μM, 1 μM, 0.3 μM, 0.1 μM, 0.03 μM, 0.01 μM, 0.003 μM, 0.001 μM, 0.0003 μM and 0 μM).
JAK3 (h) is incubated with 8 mM MOPS pH 7.0, 0.2 mM EDTA, 500 μM GGEEEEYFELVKKKK, 10 mM MgAcetate and [γ-^33P-ATP] (specific activity approx. 500 cpm/pmol, concentration as required). The reaction is initiated by the addition of the MgATP mix. After incubation for 40 minutes at room temperature, the reaction is stopped by the addition of 3% phosphoric acid solution. 10 μL of the reaction is then spotted onto a P30 filtermat and washed three times for 5 minutes in 75 mM phosphoric acid and once in methanol prior to drying and scintillation counting.
The kinase assays described herein were performed at Millipore UK Ltd, Dundee Technology Park, Dundee DD2 1SW, UK.
As for `Cc1c2ccc(Nc3ncc(Cl)c(NC4CCN(c5ccc(C#N)cn5)CC4)n3)cc2nn1C` [Ex. 4], the IC50 (usually the point on the concentration scale where inhibition reaches its midpoint) was found to be 21 nM.
Then `Cc1c2ccc(Nc3ncc(Cl)c(NC4CCN(c5ccc(C#N)nn5)CC4)n3)cc2nn1C` [Ex. 12, 6-(4-((5-chloro-2-((2,3-dimethyl-2H-indazol-6-yl)amino)pyrimidin-4-yl)amino)piperidin-1-yl)pyridazine-3-carbonitrile], with 20 nM.
Then `Cc1cc(Nc2ncc(Cl)c(NC3CCN(c4ccc(C#N)nn4)CC3)n2)nn1C` [Ex. 13, 6-(4-((5-chloro-2-((1,5-dimethyl-1H-pyrazol-3-yl)amino)pyrimidin-4-yl)amino)piperidin-1-yl)pyridazine-3-carbonitrile], with 73 nM; and `Cc1nn(C)cc1Nc1ncc(Cl)c(NC2CCN(c3ccc(C#N)nn3)CC2)n1` [Ex. 11, 6-(4-((5-chloro-2-((1,3-dimethyl-1H-pyrazol-4-yl)amino)pyrimidin-4-yl)amino)piperidin-1-yl)pyridazine-3-carbonitrile], with 263 nM.
Then `CN(c1nc(Nc2cnn(C)c2)ncc1Cl)C1CCN(c2ccc(C#N)cn2)CC1` [Ex. 5, 6-(4-((5-chloro-2-((1-methyl-1H-pyrazol-4-yl)amino)pyrimidin-4-yl) (methyl)amino)piperidin-1-yl)nicotinonitrile], with 13 nM; and `Cc1nn(C)cc1Nc1ncc(Cl)c(NC2CCN(c3ccc(C#N)cn3)CC2)n1` [Ex. 10, 6-(4-((5-chloro-2-((1,3-dimethyl-1H-pyrazol-4-yl)amino)pyrimidin-4-yl)amino)piperidin-1-yl)nicotinonitrile], with 82 nM.
